Data reported in the supplement of paper PMC10307832.

Tests used:
Experiment in all cases: relative viability (nuclei count vs DMSO), 5 days (fraction); higher = more cells survive
Metformin + Navitoclax = compound: CN(C)C(=N)NC(=N)N [Metformin] + CC1(C)CCC(c2ccc(Cl)cc2)=C(CN2CCN(c3ccc(C(=O)NS(=O)(=O)c4ccc(N[C@H](CCN5CCOCC5)CSc5ccccc5)c(S(=O)(=O)C(F)(F)F)c4)cc3)CC2)C1 [Navitoclax] (partner 0.5 µM)
In short: (§1)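 After 5 days of treatment, lung cancer cells in 1536-well plates were fixed and stained in a single step (final 0.05% Triton X-100, 1% formaldehyde, 1 ug/ml Hoechst) and their nuclei counted on 4× images. Treatment had been applied by pin tool the day after seeding as one drug alone or as a fixed anchor-drug dose with five library-drug doses (not always all listed) in √10 steps. Relative viability is the nuclei count of treated wells divided by that of vehicle wells, and values are medians of duplicate plates.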

Metformin = compound: CN(C)C(=N)NC(=N)N [Metformin]
In short: (§2)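 Acceptance criteria were a control CV below 25% and at least one doubling per plate. Lung cancer cell lines in 1536-well plates got five library-drug doses (not always all listed) √10 apart by pinning and were left 5 days with no medium change. Viability divides treated-well nuclei by vehicle-well nuclei and is the median across plates. Nuclei were counted by MetaXpress from 4× Hoechst images.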

Apatinib = compound: N#CC1(c2ccc(NC(=O)c3cccnc3NCc3ccncc3)cc2)CCCC1 [Apatinib]
In short: as §2

Apatinib + Phenformin = compound: N#CC1(c2ccc(NC(=O)c3cccnc3NCc3ccncc3)cc2)CCCC1 [Apatinib] + N=C(N)NC(=N)NCCc1ccccc1 [Phenformin] (partner 250 µM)
In short: as §1

| Cell Line | relative viability (Metformin + Navitoclax; first compound 10 µM) | relative viability (Metformin + Navitoclax; first compound 31.62 µM) | relative viability (Metformin + Navitoclax; first compound 100 µM) | relative viability (Metformin + Navitoclax; first compound 316.23 µM) | relative viability (Metformin + Navitoclax; first compound 1000 µM) | relative viability (Metformin; 10 µM) | relative viability (Metformin; 31.62 µM) | relative viability (Metformin; 100 µM) | relative viability (Metformin; 316.23 µM) | relative viability (Metformin; 1000 µM) | relative viability (Apatinib; 0.08 µM) | relative viability (Apatinib; 0.253 µM) | relative viability (Apatinib; 0.8 µM) | relative viability (Apatinib; 2.53 µM) | relative viability (Apatinib; 8 µM) | relative viability (Apatinib + Phenformin; first compound 0.08 µM) | relative viability (Apatinib + Phenformin; first compound 0.253 µM) | relative viability (Apatinib + Phenformin; first compound 0.8 µM) | relative viability (Apatinib + Phenformin; first compound 2.53 µM) | relative viability (Apatinib + Phenformin; first compound 8 µM) |
| --- | --- | --- | --- | --- | --- | --- | --- | --- | --- | --- | --- | --- | --- | --- | --- | --- | --- | --- | --- | --- |
| Calu-6 | 0.726 | 0.784 | 0.855 | 0.7 | 0.619 | 0.899 | 0.961 | 0.953 | 0.931 | 0.964 | 1.01 | 1.01 | 0.908 | 0.868 | 0.799 | – | – | – | – | – |
| LOU-NH91 | 0.867 | 0.717 | 0.751 | 0.766 | 0.767 | 0.998 | 0.865 | 0.973 | 0.997 | 0.946 | 0.94 | 0.922 | 0.871 | 0.89 | 0.898 | 0.651 | 0.73 | 0.631 | 0.659 | 0.665 |
| CAL-12T | – | 1.35 | 1.14 | 1.29 | 1.09 | 1.02 | 1.19 | 0.938 | 1.02 | 0.968 | 1.08 | 0.99 | 1 | 0.91 | 0.828 | 0.636 | 0.638 | 0.565 | 0.542 | 0.467 |
| IA-LM | – | 0.93 | 0.941 | 0.686 | 0.645 | 0.982 | 1.16 | 1.15 | 1.07 | 1.15 | 0.955 | 0.9 | 0.994 | 0.694 | 0.535 | – | – | – | – | – |
| NCI-H1703 | 1.18 | 1.15 | 1.16 | 0.854 | 0.735 | 1.3 | 1.42 | 0.998 | 1.06 | 1.19 | 0.784 | 0.769 | 0.355 | 0.199 | 0.19 | – | – | – | – | – |
| BEN | 0.0532 | 0.0708 | 0.0914 | 0.0748 | 0.0712 | 1.26 | 1.4 | 1.29 | 1.17 | 1.47 | 1 | 0.92 | 1.02 | 0.821 | 0.807 | 0.26 | 0.255 | 0.25 | 0.232 | 0.25 |
| EMC-BAC-2 | 1.1 | 1.17 | 1.1 | 1.09 | 1.15 | 0.944 | 0.99 | 0.788 | 0.94 | 0.968 | 0.772 | 0.994 | 0.957 | 0.8 | 0.811 | 0.578 | 0.568 | 0.463 | 0.383 | 0.39 |
| SW 900 | – | – | – | – | – | 1.08 | 1.15 | 0.779 | 0.933 | 1.07 | 1 | 0.87 | 0.858 | 0.615 | 0.825 | 0.714 | 0.606 | 0.54 | 0.362 | 0.425 |
| NCI-H1563 | – | – | – | – | – | 0.954 | 1.11 | 1.16 | 1.07 | 1.14 | 0.961 | 1.08 | 0.98 | 0.931 | 0.867 | 0.642 | 0.705 | 0.75 | 0.517 | 0.623 |
| EBC-1 | 0.364 | 0.405 | 0.356 | 0.362 | 0.442 | 1.18 | 1.19 | 1.07 | 0.918 | 1.04 | 1 | 1.06 | 0.914 | 0.858 | 0.738 | – | – | – | – | – |
| NCI-H661 | – | – | – | – | – | 0.801 | 0.964 | 0.911 | 0.875 | 0.893 | 0.973 | 0.908 | 0.973 | 0.929 | 0.948 | 0.279 | 0.273 | 0.273 | 0.263 | 0.277 |
| NCI-H1648 | – | – | – | – | – | 0.937 | 1.11 | 1.28 | 1.08 | 1.16 | 1.18 | 0.735 | 0.722 | 0.591 | 0.498 | – | – | – | – | – |
| NCI-H2342 | – | – | – | – | – | 0.665 | 1.03 | 1.04 | 0.935 | 1.07 | 0.899 | 0.909 | 0.998 | 0.929 | 0.941 | 0.526 | 0.588 | 0.585 | 0.569 | 0.577 |
| NCI-H1299 | 1.12 | 1.11 | 1.15 | 1.15 | 1.12 | 1.07 | 1.04 | 1.07 | 1.01 | 1.03 | 1.04 | 1 | 1 | 0.931 | 0.917 | – | – | – | – | – |
| NCI-H650 | – | – | – | – | – | 1.02 | 1.1 | 0.816 | 0.953 | 1.07 | 0.979 | 0.927 | 1 | 0.745 | 0.763 | 0.405 | 0.413 | 0.447 | 0.385 | 0.374 |
| LCLC-103H | – | – | – | – | – | 0.848 | 1.01 | 1.07 | 1.01 | 1.02 | 0.998 | 0.956 | 0.956 | 0.912 | 0.942 | 0.363 | 0.31 | 0.316 | 0.297 | 0.308 |
| NCI-H522 | – | – | – | – | – | 1.24 | 1.09 | 1.05 | 0.942 | 1.11 | 1 | 1.04 | 1.1 | 0.916 | 0.928 | 0.708 | 0.696 | 0.638 | 0.617 | 0.669 |
